In paper PMC7712428, “Dimethoate Induces DNA Damage and Mitochondrial Dysfunction Triggering Apoptosis in Rat Bone-Marrow and Peripheral Blood Cells” (Toxics, 2020):
Like-named read-outs stand apart in the source and are kept apart here.

Assays:
[1] = tested on: Platelets; settings: 72 h treatment
[2] = tested on: peripheral blood cells; settings: Mean ± SD, 40 mg/kgbw
From the text: (§1) The experimental animals—Rattus norvegicus (Wistar strain; 8–10 weeks old; 120 ± 20 gm; males only) were acquired from Indian Institute of Integrative Medicine (IIIM-CSIR) (Jammu, India), quarantined, acclimatized and sacrificed as per standard practice conforming to the University Ethical Regulations. After acclimatization, rats were divided into five groups by stratified randomization with five animals per group. […] Distilled water was used to prepare dosing solutions of test agent and injected via intraperitoneal (i.p.) injection. At 24, 48 and 72 h post-dosing, 5 rats per duration were sacrificed and necessary tissues were isolated for different cytogenetic and molecular parameters. For CA assessment, separate experimental lot was used due to colchicine treatment.
Detection of DNA strand break was performed according to protocol of Singh et al. with some modifications. Briefly, blood was collected using Retro-orbital bleeding during euthanasia. 10μL whole blood cells obtained were mixed with 75 µL of 0.5% LMPA and layered onto frosted slides which was pre-coated with NMA. After putting cover slip, slides were kept for 5–10min. After gelling, removed cover slip gently and added a layer of 90 μL of LMPA. After replacing the cover slip, slides were placed on the slide tray (ice packs) till the agarose layer hardened (5–10 min). Following this, removed the cover slip and by gently immersing the slides in lysis buffer embedded cells were lysed. Cells lysis was performed in cold conditions for a minimum of 2 h in lysing solution.
Alkaline conditions (pH > 13) were used to perform the electrophoresis. After lysis, slides were subjected in electrophoretic buffer at 4 °C for 40 min to achieve the DNA denaturation that allow the DNA unwinding and the expression of alkali labile site. Electrophoresis was then carried out at 0.74 V/cm for 40 min (300 mA; 24 volts) at 4 °C by raising or lowering buffer. Thereafter, neutralization buffer (0.4 M Tris, 10 M HCl; pH = 7.5) were employed to wash the slides. Slides were stained by 80 μL of 1× Ethidium Bromide and excess stain was removed by dipping in chilled distilled water. Slides were examined at 40× magnification under fluorescence microscope coupled with a charge coupled device camera (Olympus).

[3] = tested on: bone marrow cells; settings: 40 mg/kgbw; for Total Aberrations (Mean ± SD): mean percentage; for MI (Mean ± SD): mitotic index mean percentage; for Structural Aberrations Assoc: number of associations; for Structural Aberrations Brk: number of breaks; for Structural Aberrations Del: number of deletions; for Structural Aberrations Dcn: number of dicentrics; for Structural Aberrations Frag: number of fragments; for Structural Aberrations Gp: number of gaps; for Structural Aberrations Ring: number of rings
From the text: as §1
Method of Preston et al. was used for preparing the metaphase chromosomes. An aqueous solution of Colchicine (4 mg/kgbw) was injected intraperitoneally 2 h prior to sacrificing the animal. Pre-warm KCL (0.075 M) solution was used to collect the bone marrow cells followed by incubation at 37 °C for 20 min, and then centrifuge at 1000 rpm for 10 min. After fixing the pellet in cold Cornoy’s fixative dropped onto clean pre-chilled glass slide in 30% ethanol and dried in air. 5% buffered Giemsa (pH 7.0) was used for staining. Chromosomal aberrations were analyzed on properly separated metaphases and finally photographed at 100× (Olympus U—PMTV microscope), using oil immersion. The metaphase cells from approximately 1000 cells per concentration per animal both in exposed and control replicates, expressed in percentage were considered for mitotic indices (MI).

[4] = tested on: Eosinophils; settings: 72 h treatment
From the text: as §1
(§2) WBCs were isolated by following the protocol of Lone et al.. Blood was collected in 0.1% EDTA from retro-orbital plexus of rat, followed by incubation for 30 min. 500 µL of blood was then added to a centrifuge tube with 1 mL FACS lysing solution. The blood was incubated for 10 min and centrifuged (2000 rpm, 10 min) at 25 °C. After discarding the supernatant, pellet was washed in 1mL FACS lysing solution followed by centrifuging at 2000 rpm for 5 min. Repeated this step twice and then pellet was put in 500 µL of PBS, leaving only WBCs.
(§3) Protocol of Majeed and colleagues was employed for flow cytometric measurements of change in Ψm. […] Leukocytes were identified via forward and side scatter.

[5] = tested on: Neutrophils
From the text: as §1, §2, §3

Structure (SMILES): O=P1(N(CCCl)CCCl)NCCCO1 (stereo not shown) [Cyclophosphamide, reference compound]
- MMP loss (membrane potential loss) [1]: 81.1%
- Olive Tail Moment ([2]; 24 h): 12.52 ± 0.81 ***^,a
- Tail Length (µm) ([2]; 24 h): 51.01 ± 3.71 ***^,a µm
- Olive Tail Moment ([2]; 48 h): 11.28 ± 0.84 ***^,a
- Tail Length (µm) ([2]; 48 h): 40.91 ± 2.86 ***^,a µm
- Olive Tail Moment ([2]; 72 h): 8.23 ± 0.73 ***^,a
- Tail Length (µm) ([2]; 72 h): 38.51 ± 1.05 ***^,a µm
- Total Aberrations (Mean ± SD) ([3]; 24 h): 17.50 ± 3.33 ***^,a %
- Total Aberrations (Mean ± SD) ([3]; 48 h): 13.66 ± 2.56 ***^,a %
- Total Aberrations (Mean ± SD) ([3]; 72 h): 10.66 ± 2.61 ***^,a %
- MI (Mean ± SD) ([3]; 24 h): 1.52 ± 0.05 **^,a %
- MI (Mean ± SD) ([3]; 48 h): 1.56 ± 0.05 **^,a %
- MI (Mean ± SD) ([3]; 72 h): 1.63 ± 0.03 **^,a %
- Structural Aberrations Assoc ([3]; 24 h): 9
- Structural Aberrations Assoc ([3]; 48 h): 7
- Structural Aberrations Assoc ([3]; 72 h): 4
- Structural Aberrations Brk ([3]; 24 h): 14
- Structural Aberrations Brk ([3]; 48 h): 12
- Structural Aberrations Brk ([3]; 72 h): 9
- Structural Aberrations Del ([3]; 24 h): 23
- Structural Aberrations Del ([3]; 48 h): 18
- Structural Aberrations Del ([3]; 72 h): 15
- Structural Aberrations Dcn ([3]; 24 h): 25
- Structural Aberrations Dcn ([3]; 48 h): 18
- Structural Aberrations Dcn ([3]; 72 h): 14
- Structural Aberrations Frag ([3]; 24 h): 26
- Structural Aberrations Frag ([3]; 48 h): 21
- Structural Aberrations Frag ([3]; 72 h): 19
- Structural Aberrations Gp ([3]; 24 h): 20
- Structural Aberrations Gp ([3]; 48 h): 16
- Structural Aberrations Gp ([3]; 72 h): 13
- Structural Aberrations Ring ([3]; 24 h): 8
- Structural Aberrations Ring ([3]; 48 h): 6
- Structural Aberrations Ring ([3]; 72 h): 3
- MMP loss (membrane potential loss) [4]: 54%
- P9: percentage of reduced mitochondrial membrane potential (MMP loss) ([5]; Figure 7, one experiment, Positive Control): 10.9%
- MMP loss (membrane potential loss) ([5]; neutrophils, 72 h treatment): 93.2%
